The text below walks through data of patent publication US12516356B2, “Process for the detoxification of lignocellulosic hydrolysate and its use in synthesizing xylitol” (COUNCIL OF SCIENTIFIC AND INDUSTRIAL RESEARCH, priority 2020, dated 2026).

This series deals with HepG2 cell lines. Briefly: cytotoxicity studies on HepG2 cell lines. It counts as cell-based. The conditions noted are these: xylitol crystals recovered from fermentation broth.

As for `OC[C@@H](O)[C@H](O)[C@@H](O)CO` [Xylitol crystals, xylitol], the “toxic effect on HepG2 cell lines (cytotoxicity studies)” value is “no toxic effect”.
